Legend:
[1] = Percutaneous penetration study, Franz diffusion apparatus, human skin (*); type: in vitro ADME; settings: Example 8; for reduction of penetration on addition of the proscribed compound, in words: compared with octanoic acid (reduces penetration by 50%)
Method: The following Penetration Studies were carried out in the following manner. […] A normal saline solution is added to the lower diffusion cell, abutting the subcutaneous side of the skin. The test composition (comprising a solution of active or actives added to the carrier at the indicated formulation in a conventional manner by thoroughly mixing) is added to the diffusion cell abutting the epidermal side of the skin at the levels indicated.
This cell assembly is kept at a constant temperature of about 31° C. At appropriate or desired intervals (these are the time designations given in the following examples) each diffusion cell assembly is opened and the diffusate from the cell abutting the subcutaneous side of the skin is withdrawn. Drug actives in a diffusate is measured using standard analytical techniques. Each trial is run on a separate sample of skin.
All ratios represented by A/B, or A/B/C, and all percentages, are by weight. The compounds described as C12-18 OH are the straight chain, saturated, normal alcohols. EtOH is ethanol. The term mcg=microgram.

dermatitis = test: Topical treatment of dermatitis in a human, composition of Example 32; type: in vivo; settings: 5 mg/cm^2 of skin three times daily for five days; noted after 48 hours
Method: The above composition is applied at the afflicted situs of a human afflicted with dermatitis at a rate of 5 mg of composition/cm^2 of skin three times daily for a period of five days.

[2] = compared with hydrocortisone; cited from earlier work

reduction of penetration on addition of the proscribed compound, in words [1]	Compound	reduction of inflammation (dermatitis)	other results
	CCCCC(=O)O[C@]1(C(=O)CO)[C@@H](C)C[C@H]2[C@@H]3CCC4=CC(=O)C=C[C@]4(C)[C@@]3(F)[C@@H](O)C[C@@]21C [betamethasone valerate]	Substantially similar results	
Substantially similar results	CCCCCCCCCC(=O)O [decanoic acid]		
	CCCCCCCC(=O)O [octanoic acid]		reduction of penetration on addition of the proscribed compound ([1]; 1% Triamcinolone in Propylene Glycol + 2% C14 OH, human skin, 0-72 hrs.): 50%
	C[C@]12C=CC(=O)C=C1CC[C@@H]1[C@@H]2[C@@H](O)C[C@@]2(C)[C@H]1CC[C@]2(O)C(=O)CO [prednisolone]		change of mineralocorticoid effects by introduction of a double bond at the 1,2 position into hydrocortisone [2]: reducing mineralo corticoid effects
	COc1c(C(=O)OCC(=O)[C@@]23OC(C)(C)O[C@@H]2C[C@H]2[C@@H]4CCC5=CC(=O)C=C[C@]5(C)[C@@]4(F)[C@@H](O)C[C@@]23C)cc2ccccc2c1Cc1c(OC)c(C(=O)OCC(=O)[C@@]23OC(C)(C)O[C@@H]2C[C@H]2[C@@H]4CCC5=CC(=O)C=C[C@]5(C)[C@@]4(F)[C@@H](O)C[C@@]23C)cc2ccccc12 [flupamesone]	Substantially similar results	
	CC1(C)O[C@@H]2C[C@H]3[C@@H]4CCC5=CC(=O)C=C[C@]5(C)[C@@]4(F)[C@@H](O)C[C@]3(C)[C@]2(C(=O)CO)O1 [triamcinolone, Triamcinolone acetonide]	Substantially similar results	
	CC1(C)O[C@@H]2C[C@H]3[C@@H]4C[C@H](F)C5=CC(=O)C=C[C@]5(C)[C@@]4(F)[C@@H](O)C[C@]3(C)[C@]2(C(=O)CO)O1 [fluocinolone, acetonide, Fluocinolone acetonide]	Substantially similar results	
Substantially similar results	CCCCCCCCCCCCCCCCO [cetyl alcohol]		

Compound	reduction of penetration on addition of the proscribed compound, in words [1]	reduction of inflammation (dermatitis)	other results
CCCCCCCCCCCCCCCCCCO [stearyl alcohol]	Substantially similar results		

From patent US4552872A, “Penetrating topical pharmaceutical compositions containing corticosteroids” (priority 1984, dated 1985)
